According to US10364471B2, “Tumor suppressor REC8 as a biomarker for gastric cancer” (The Chinese University of Hong Kong, priority 2017, dated 2019):

Tested on: REC8 mRNA expression in gastric cancer cell lines
Test: Demethylation treatment with 5-Aza, REC8 mRNA by RT-PCR
Type: cell-based, human
Settings: 2 uM 5-Aza for 5 days
Description: Gastric cancer cells were treated with 2 uM DNA demethylation agent 5-Aza-2′-deoxycytidine (5-Aza) (Sigma-Aldrich, St Louis, Mo.) for 5 days and medium was refreshed every day.
Total RNA was extracted from cell pellets or tissues using Qiazol® reagent (Qiagen, Valencia, Calif.), and cDNA was synthesized using Transcriptor Reverse Transcriptase (Roche, Indianapolis, Ind.). RT-PCR was performed using the GoTaq® DNA polymerase (Promega). qPCR was performed using SYBR Green master mixture on HT7900 system (Applied Biosystems, Foster City, Calif.). Primers used are listed in Table 5 and also published previously.^7

SMILES: Nc1ncn([C@H]2C[C@H](O)[C@@H](CO)O2)c(=O)n1 [5-Aza, 5-Aza-2′-deoxycytidine]
- REC8 mRNA expression (AGS with REC8 expression/unmethylated): had no effect
- REC8 mRNA expression (cell lines with REC8 down-regulated/methylated (BGC823, SNU719, NCI-N87, MKN28, AGS-EBV)): restored
